Tests used:
[1] = molecular target: T1, hM1 (human Muscarinic receptor subtype 1) (Homo sapiens, UniProt P11229); test: Human M1 calcium mobilization FLIPR assay; format: cell-based; details: CHO cells expressing hM1, Ca2+ release
T1 construct: expressed in transfected cells; host or cells: CHO cells (ATCC)
T1 sequence (P11229 1-460): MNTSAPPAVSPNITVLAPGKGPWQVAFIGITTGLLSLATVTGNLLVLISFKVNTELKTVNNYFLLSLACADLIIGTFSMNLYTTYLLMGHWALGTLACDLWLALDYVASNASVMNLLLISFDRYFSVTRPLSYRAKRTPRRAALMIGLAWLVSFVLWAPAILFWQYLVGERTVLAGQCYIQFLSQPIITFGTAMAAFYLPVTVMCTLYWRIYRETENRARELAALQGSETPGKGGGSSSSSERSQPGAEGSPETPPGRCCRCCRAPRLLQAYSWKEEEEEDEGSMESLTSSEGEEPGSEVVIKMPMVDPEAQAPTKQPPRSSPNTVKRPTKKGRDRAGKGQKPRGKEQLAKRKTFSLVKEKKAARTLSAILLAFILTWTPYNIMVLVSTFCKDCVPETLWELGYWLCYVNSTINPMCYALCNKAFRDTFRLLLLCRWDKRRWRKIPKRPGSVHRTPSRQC
Experimental: (§1) The compound activity in the present invention (EC50 or IC50) was measured using a 384 plate-based imaging assay that monitors drug induced intracellular Ca^2+ release in whole cells. Activation of hM1 (human Muscarinic receptor subtype 1, gene bank access NM_000738), rM1 (rat Muscarinic receptor subtype 1, gene bank access NM_080773), hM3 (human Muscarinic receptor subtype 3, gene bank access NM_000740NM_000740) and hM5 (human Muscarinic receptor subtype 5, gene bank access NM_0121258), receptors expressed in CHO cells (chinese hamster ovary cells, ATCC) was quantified in a Molecular Devices FLIPR II™ instrument as an increase in fluorescent signal. Inhibition of hM3 and hM5 by compounds was determined by the decrease in fluorescent signal in response to 20 nM carbachol activation.
(§2) CHO cells were plated in 384-black polylysine coated plate (Costar) at 8000 cells/well/50 μl for 24 hours or 4000 cells/well for 48 hours in a humidified incubator (5% CO2 and 37° C.) in DMEM/F12 medium without selection agent. Prior to the experiment the cell culture medium was removed from the plates by inversion. A loading solution of 30 μl of Hank's balanced salt solution, 10 mM Hepes and 2.5 mM Probenicid at Ph 7.4 (Cat no. 311-520-VL, Wisent) with 2 μM calcium indicator dye (FLUO-3AM, Molecular Probes F14202) was added to each well. Plates were incubated at 37° C. for 60 minutes prior to start the experiment. The incubation was terminated by washing the cells four times in assay buffer, leaving a residual 25 μl buffer per well. Cell plates were then transferred to the FLIPR, ready for compound additions.
(§3) The day of experiment, carbachol and compounds were diluted in three-fold concentration range (10 points serial dilution) for addition by FLIPR instrument. For all calcium assays, a baseline reading was taken for 30 seconds followed by the addition of 12.5 μl (25 μl for hM1 and rM1) of compounds, resulting in a total well volume of 37.5 μl (50 μl for hM1 and rM1). Data were collected every 1.6 seconds for 300 seconds. For hM3 and hM5 an additional 12.5 μl of carbachol (20 nM final) was added at 300 seconds. After this addition of carbachol (producing a final volume of 50 μl), the FLIPR continued to collect data every 2 seconds for 240 seconds. The fluorescence emission was read using filter 1 (emission 520-545 nm) by the FLIPR on board CCD camera.
(§4) Calcium mobilization output data were calculated as the maximal relative fluorescence unit (RFU) minus the minal value for both compound and agonist reading frame (except for hM1 and rM1 using only the maximal RFU). Data were analyzed using sigmoidal fits of a non-linear curve-fitting program (XLfit version 5.0.6 from ID Business Solutions Limited, Guildford, UK). All EC50 and IC50 values are reported as arithmetic means±standard error of mean of ‘n’ independent experiments.

[2] = molecular target: T2, hM3 (human Muscarinic receptor subtype 3) (Homo sapiens, UniProt P20309); test: Human M3 calcium mobilization FLIPR assay; format: cell-based; details: CHO cells expressing hM3, Ca2+ release
T2 construct: expressed in transfected cells; host or cells: CHO cells (ATCC)
T2 sequence (P20309 whole entry): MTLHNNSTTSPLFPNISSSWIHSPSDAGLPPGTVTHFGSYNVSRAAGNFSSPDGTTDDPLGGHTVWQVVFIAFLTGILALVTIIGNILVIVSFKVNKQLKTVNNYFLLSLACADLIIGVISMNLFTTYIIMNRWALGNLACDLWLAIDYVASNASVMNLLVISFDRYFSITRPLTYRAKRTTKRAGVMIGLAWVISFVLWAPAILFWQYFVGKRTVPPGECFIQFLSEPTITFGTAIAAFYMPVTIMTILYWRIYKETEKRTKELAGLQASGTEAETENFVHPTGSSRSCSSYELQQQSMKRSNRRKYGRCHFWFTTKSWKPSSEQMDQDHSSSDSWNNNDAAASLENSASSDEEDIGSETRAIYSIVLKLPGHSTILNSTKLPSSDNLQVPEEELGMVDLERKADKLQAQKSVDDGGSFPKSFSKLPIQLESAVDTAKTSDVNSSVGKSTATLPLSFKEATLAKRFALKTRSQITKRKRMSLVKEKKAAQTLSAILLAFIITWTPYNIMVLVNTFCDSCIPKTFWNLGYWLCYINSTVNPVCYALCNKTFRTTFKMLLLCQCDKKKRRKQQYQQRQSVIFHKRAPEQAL
Experimental: as §1, §2, §3, §4

SMILES	EC50 [1] [nM]	EC50 [2] [nM]
CCOC(=O)N1CC[C@@H](N2CCC(n3c(=O)[nH]c4ccc(F)cc43)CC2)C1 (single isomer, unassigned) [Example 36]	40.8	> 40000
O=C(C1CCCC1)N1CC[C@H](N2CCC(n3c(=O)[nH]c4ccccc43)CC2)C1 [Example 19, 1-{1-[(3S)-1-(cyclopentylcarbonyl)pyrrolidin-3-yl]piperidin-4-yl}-1,3-dihydro-2H-benzimidazol-2-one]	9.6	2080
O=C1CCCN1CCC(=O)N1CC[C@H](N2CCC(N3C(=O)Cc4ccccc43)CC2)C1 [Example 29, 1-(1-{(3S)-1-[3-(2-oxopyrrolidin-1-yl)propanoyl]pyrrolidin-3-yl}piperidin-4-yl)-1,3-dihydro-2H-indol-2-one]	3.5	2500
CCOC(=O)N1CC[C@H](N2CCC(n3c(=O)[nH]c4ccc(F)cc43)CC2)C1 (single isomer, unassigned) [Example 35]	4.5	5960
CCOC(=O)N1CCC(N2CCC(C3C(=O)Nc4ccccc43)CC2)C1 (centres unmarked) [Example 13, Ethyl 3-[4-(2-oxo-2,3-dihydro-1H-indol-3-yl)piperidin-1-yl]pyrrolidine-1-carboxylate]	113	> 40000
O=C1CCCN1CCCC(=O)N1CC[C@H](N2CCC(n3c(=O)[nH]c4ccccc43)CC2)C1 [Example 22, 1-(1-{(3S)-1-[4-(2-oxopyrrolidin-1-yl)butanoyl]pyrrolidin-3-yl}piperidin-4-yl)-1,3-dihydro-2H-benzimidazol-2-one]	37.9	
CCOC(=O)N1CC[C@H](N2CCC(N3C(=O)Cc4ccccc43)CC2)C1 [Example 26, Ethyl (3S)-3-[4-(2-oxo-2,3-dihydro-1H-indol-1-yl)piperidin-1-yl]pyrrolidine-1-carboxylate]	30.8	> 40000
CCOC(=O)N1CC[C@H](N2CCC(n3c(=O)[nH]c4ccc(C#N)cc43)CC2)C1 [Example 41, Ethyl (3S)-3-[4-(6-cyano-2-oxo-2,3-dihydro-1H-benzimidazol-1-yl)piperidin-1-yl]pyrrolidine-1-carboxylate]	3.4	2680
Cn1c(=O)n(C2CCN([C@H]3CCN(C(=O)CCN4CCCC4=O)C3)CC2)c2ccccc21 [Example 24, 1-methyl-3-(1-{(3S)-1-[3-(2-oxopyrrolidin-1-yl)propanoyl]pyrrolidin-3-yl}piperidin-4-yl)-1,3-dihydro-2H-benzimidazol-2-one]	203	> 40000
CCOC(=O)N1CC[C@@H](N2CCC(n3c(=O)[nH]c4ccccc43)CC2)C1 [Example 16, Ethyl (3R)-3-[4-(2-oxo-2,3-dihydro-1H-benzimidazol-1-yl)piperidin-1-yl]pyrrolidine-1-carboxylate]	130	> 40000
CCOC(=O)N1CC[C@H](N2CCC(n3c(=O)[nH]c4ccc(Cl)cc43)CC2)C1 [Example 42, Ethyl (3S)-3-[4-(6-chloro-2-oxo-2,3-dihydro-1H-benzimidazol-1-yl)piperidin-1-yl]pyrrolidine-1-carboxylate]	3	
